Data on ten compounds can be found in US4968679A, “8-substituted 2-aminotetralins” (Bayer Aktiengesellschaft, priority 1986, dated 1990).

The target of this test is 5-hydroxytryptamine receptors of the sub-type 1 (5-HT1 receptor). The experiment in a line: Affinity to the 5-HT1 receptor: receptor binding studies using calf hippocampus membrane preparations, 3H-serotonin as radioactively labelled ligand. The settings on record: calf hippocampus membranes; 3H-serotonin radioligand. The method, then: In Table 1, as an example, the high affinity of the compounds according to the invention to 5-hydroxytryptamine receptors of the sub-type 1 is shown. The values specified are data which were determined from receptor binding studies using calf hippocampus membrane preparations. 3 H-serotonin was used for this purpose as radioactively labelled ligand.

One may read the Ki as a measure of affinity in units of concentration, obtained from inhibition or displacement. With `CCCN(CCC)C1CCc2cccc(OC)c2C1` (stereo not shown) [R^1 =OCH3, R^2 =R^3 =nC3 H7, reference compound], the Ki came out at 0.003 µM.
For `CCCN(CCC)C1CCc2cccc(OCCNC=O)c2C1` (stereo not shown) [Example 33, 2-Dipropylamino-8-(2-formylamido-ethoxy)-1,2,3,4-tetrahydronaphthalene] the value was 0.019 µM; for `CCCN(CCC)C1CCc2cccc(OCCNC(=O)OCC)c2C1` (stereo not shown) [Example 28, 2-Dipropylamino-8-(2-ethoxycarbonylamido-ethoxy)1,2,3,4-tetrahydronaphthalene], 0.004 µM.
Turning to `CCCN(CCC)C1CCc2cccc(OCCNC(N)=O)c2C1` (stereo not shown) [Example 30, 2-Dipropylamino-8-ureidoethoxy-1,2,3,4-tetrahydronaphthalene], the Ki stood at 0.03 µM.
For `CCCCS(=O)(=O)NCCOc1cccc2c1CC(N(CCC)CCC)CC2` (stereo not shown) [Example 26, 2-Dipropylamino-8-(2-butanesulphonamidoethoxy)-1,2,3,4-tetrahydronaphthalene] the value was 0.017 µM; for `CCCN(CCC)C1CCc2cccc(Br)c2C1` (stereo not shown) [Example 2, 2-Dipropylamino-8-bromo-1,2,3,4-tetrahydronaphthalene], 0.013 µM.
The figure for `CCCN(CCC)C1CCc2cccc(Cl)c2C1` (stereo not shown) [Example 1, 2-Dipropylamino8-chloro-1,2,3,4-tetrahydronaphthalene] is 0.02 µM.
The figure for `CCCN(CCC)C1CCc2cccc(CCNC(=O)OCc3ccccc3)c2C1` (stereo not shown) [Example 42, 2-Dipropylamino-8-(2-benzyloxycarbonylamido-ethyl)-2,3,4-tetrahydronaphthalene] is 0.005 µM; for `CCCN(CCC)C1CCc2cccc(O)c2C1` (stereo not shown) [R^1 =OH, R^2 =R^3 =nC3 H7, reference compound] it is 0.002 µM; for `CCCN(CCC)C1CCc2cccc(C(N)=O)c2C1` (stereo not shown) [Example 6, 2-Dipropylamino-8-carbamoyl-1,2,3,4-tetrahydronaphthalene] it is 0.007 µM.
